Measurements from PubChem BioAssay (NCI).
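All cell lines were grown in 96-well plates and treated with compound for 48 hours. At the TGI there is no net growth.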

Experiments:
Assay in all cases: DTP human tumour cell line panel, 48 h
A549 NSCLC = tested on: A549 NSCLC
U251 CNS = tested on: U251 CNS
NCI-H522 lung = tested on: NCI-H522 lung
MOLT-4 leukemia = tested on: MOLT-4 leukemia
HCT-116 colon = tested on: HCT-116 colon
CAKI-1 renal = tested on: CAKI-1 renal
SW-620 colon = tested on: SW-620 colon
OVCAR-3 ovarian = tested on: OVCAR-3 ovarian
UO-31 renal = tested on: UO-31 renal
COLO 205 colon = tested on: COLO 205 colon
MDA-MB-435 = tested on: MDA-MB-435
786-0 renal = tested on: 786-0 renal

SMILES	TGI (A549 NSCLC)	TGI (U251 CNS)	TGI (NCI-H522 lung)	TGI (MOLT-4 leukemia)	TGI (HCT-116 colon)	TGI (CAKI-1 renal)	TGI (SW-620 colon)	TGI (OVCAR-3 ovarian)	TGI (UO-31 renal)	TGI (COLO 205 colon)	TGI (MDA-MB-435)	TGI (786-0 renal)
O=C1C(NS(=O)(=O)c2ccccc2)=C(n2ccnc2)C(=O)c2ccccc21	> 100 µM	> 100 µM	> 100 µM	> 100 µM	> 100 µM	> 100 µM	> 100 µM	> 100 µM	> 100 µM	> 100 µM	> 100 µM	> 100 µM
O=c1[nH]c2c(C(F)(F)F)c(Cl)c(-c3ccccc3)nc2o1	> 100 µM	85.6 µM	> 100 µM	32.5 µM	38.4 µM	> 100 µM	> 100 µM	65.8 µM	> 100 µM	28.1 µM	> 100 µM	> 100 µM
O=S(=O)(O)c1cc(O)c(N=NC2S(=O)(=O)OCCOS2(=O)=O)c2ccccc12	> 100 µM	> 100 µM	> 100 µM	> 100 µM	> 100 µM	> 100 µM	> 100 µM	> 100 µM	> 100 µM	> 100 µM	> 100 µM	> 100 µM
CC1=C[C@H](C[C@]2(C)c3c(c4c(C)cccc4oc3=O)O[C@@H]2C)OC1=O	> 100 µM	> 100 µM	49.6 µM	72.3 µM	30.3 µM	> 100 µM	75 µM	> 100 µM	> 100 µM	> 100 µM	> 100 µM	50 µM
CCN(CC)C1=Nc2ccccc2-n2ccnc2C1	> 100 µM	> 100 µM	> 100 µM	> 100 µM	> 100 µM	> 100 µM	> 100 µM	> 100 µM	> 100 µM	> 100 µM	> 100 µM	> 100 µM
COc1cc2ncnc(Nc3cccc(Br)c3)c2cc1OC	> 69.1 µM	> 46.7 µM	11.1 µM	> 65.5 µM	39.3 µM	> 52.1 µM	> 50.2 µM	45.4 µM	33.6 µM	20.8 µM	49.7 µM	4.8 µM
CCOP(=O)(OCC)/C(C#N)=C/c1nc[nH]c1C	> 100 µM	> 100 µM	> 100 µM	> 100 µM	> 100 µM	> 100 µM	> 100 µM	> 100 µM	> 100 µM	> 100 µM	> 100 µM	> 100 µM
CCN1CC2=C(OC(N)=C(C#N)C2c2ccc(Cl)cc2)/C(=C/c2ccc(Cl)cc2)C1 (stereo unspecified)	49.1 µM	47.2 µM	> 100 µM	> 100 µM	54.9 µM	30.5 µM	> 100 µM	> 100 µM	> 100 µM	> 100 µM	> 100 µM	29.8 µM
Cc1ccc(N=NC(=Nc2ccc(F)cc2)c2ccc(N(CCC#N)CCC#N)cc2)cc1	> 100 µM	> 100 µM	63.7 µM	> 100 µM	> 100 µM	> 100 µM	> 100 µM	> 100 µM	> 100 µM	> 100 µM	> 100 µM	> 100 µM
COc1nc2ncc([C@@H](OC(C)=O)[C@@H](COC(C)=O)OC(C)=O)nc2c(=O)n1C	> 100 µM	> 100 µM	> 100 µM	> 100 µM	> 100 µM	> 100 µM	> 100 µM	> 100 µM	> 100 µM	> 100 µM	> 100 µM	> 100 µM
O=c1[nH]nc(-c2ccc3ccccc3c2)[nH]1	> 100 µM	> 100 µM	> 100 µM	> 100 µM	> 100 µM	> 100 µM	> 100 µM	> 100 µM	> 100 µM	> 100 µM	> 100 µM	> 100 µM
CCCCOC(=O)Nc1ccc(S(=O)(=O)Nc2c(Cl)cccc2Cl)cc1	> 100 µM	> 100 µM	> 100 µM	88.4 µM	57.5 µM	82.7 µM	90.1 µM	73.5 µM	61.5 µM	34.3 µM	72.6 µM	79.5 µM
COC(=O)[C@H](Cc1ccccc1)NC(=O)N(CCN(CCC#N)C(=O)N[C@H](C(=O)OC)C(C)C)c1ccccc1	> 100 µM	> 100 µM	> 100 µM	> 100 µM	> 100 µM	> 100 µM	> 100 µM	> 100 µM	> 100 µM	> 100 µM	> 100 µM	> 100 µM
CCOC(=O)c1nc(SC)sc1NC(=O)c1ccc(OC)cc1	> 100 µM	55.4 µM	> 100 µM	> 100 µM	48.2 µM	> 100 µM	> 100 µM	> 100 µM	> 100 µM	> 100 µM	> 100 µM	> 100 µM
O=[N+]([O-])C1=Cc2c(O)ccc(O)c2C2OC=CC12 (stereo unspecified)	43.4 µM	32.6 µM	18.1 µM	> 46.8 µM	32.1 µM	25.8 µM	> 77.4 µM	21.3 µM	29.7 µM	> 63.8 µM	6.1 µM	32.6 µM
C[C@]12CC[C@H]3[C@@H](CC=C4C[C@@H](N5CCCC5)CC[C@@]43C)[C@@H]1C/C(=C\c1ccc([N+](=O)[O-])cc1)[C@@H]2O	32.6 µM	25.2 µM	32 µM	4.99 µM	29.8 µM	27.6 µM	36.6 µM	31.5 µM	28.4 µM	32.6 µM	31 µM	17.9 µM
N#C/C=C(/NC(=O)Nc1ccccc1)N1CCCC1	> 61.3 µM	> 53.8 µM	> 60.8 µM	> 100 µM	> 55.5 µM	> 59.8 µM	> 63.7 µM	> 100 µM	> 100 µM	> 100 µM	> 100 µM	> 100 µM
COc1cc2c(c3nc4ccccc4nc13)-c1ccc(SC)c(=O)cc1[C@@H](NC(C)=O)CC2	> 100 µM	> 100 µM	0.151 µM	> 100 µM	> 100 µM	> 100 µM	> 100 µM	> 100 µM	> 100 µM	0.419 µM	0.0693 µM	> 100 µM
